Reference: patent US9167822B2, “Antifungal compositions” (DSM IP ASSETS B.V., priority 2012, dated 2015)
Several values for one entry are separate records, joined by “and”; a condition that tells them apart may be missing. Equal entries are not always repeated.

Legend:
Botrytis cinerea [1] = test: Treatment of strawberries: wounded, inoculated with Botrytis cinerea, then dipped in antifungal composition; assay type: in vivo
Method: (§1) Ten fresh, organic strawberries were used per treatment. Each strawberry was wounded with a 0.5 mm long cut and each wound was inoculated with 10 μl of a Botrytis cinerea suspension containing 1×10^5 of spores/ml. […] The pH of the compositions was 4. A composition without natamycin or bixafen was used as control. The treated strawberries were incubated in a closed box in the dark at 20° C.
(§2) During incubation, mould growth on the strawberries was assessed in a twofold manner: (i) the number of moulded strawberries per total of 10 strawberries was counted; and (ii) the antifungal activity (in %) of the individual and combined active ingredients was determined by calculating the reduction in mould growth observed on the strawberries treated with the antifungal composition in comparison to the mould growth on the strawberries treated with the control composition. The expected antifungal activity (E in %) of the combined antifungal composition comprising both active ingredients was calculated according to the Colby equation (Colby, 1967): E=X+Y−[(X·Y)/100] wherein X and Y are the observed antifungal activities (in %) of the individual active ingredients X and Y, respectively. If the observed antifungal activity (O in %) of the combination exceeds the expected antifungal activity (E in %) of the combination and the synergy factor O/E is thus >1.0, the combined application of the active ingredients leads to a synergistic antifungal effect.
The treated strawberries were assessed on mould growth. The antifungal activity (in %) of the individual and combined active ingredients was determined according to the method described in Example 3. […]

Botrytis cinerea [2] = test: Treatment of strawberries: wounded, dipped in antifungal composition, then inoculated with Botrytis cinerea; assay type: in vivo; conditions: 1000 ppm bixafen or both
Method: as §1, §2
After treatment, each strawberry was inoculated with 10 μl of a Botrytis cinerea suspension containing 1×10^5 of spores/ml. The treated strawberries were assessed on mould growth according to the two methods described in Example 3.

Penicillium italicum [3] = test: Treatment of mandarins wounded and inoculated with Penicillium italicum, then dipped; assay type: in vivo
Method: Ten fresh, organic mandarins were used per treatment. The peel of each mandarin was wounded once using a cork borer according to the method described by de Lapeyre de Bellaire and Dubois (1987). Subsequently, each wound was inoculated with 10 μl of a Penicillium italicum suspension containing 1×10^5 of spores/ml. […] The pH of the compositions was 4.
The treated mandarins were incubated in a closed box in the dark at 20° C. and assessed on mould growth during incubation.

Penicillium italicum [4] = test: Treatment of apples wounded and inoculated with Penicillium italicum, then dipped; assay type: in vivo; conditions: for Number of moulded apples/total number of 10 apples: 500 ppm natamycin; for Number of moulded apples per total of 10 apples: 250 ppm natamycin
Method: Ten fresh, organic apples were used per treatment. Each apple was wounded once using a cork borer according to the method described by de Lapeyre de Bellaire and Dubois (1987). Subsequently, each wound was inoculated with 10 μl of a Penicillium italicum suspension containing 1×10^6 of spores/ml. […] The pH of the compositions was 4. A composition without natamycin or bixafen was used as control. The treated apples were incubated in a closed box in the dark at 20° C. […]
During incubation, the treated apples were assessed on mould growth according to the two methods described in Example 3. […]

Penicillium italicum [5] = test: In vitro antifungal activity, 96-well microtiter plates; assay type: cell-based; conditions: 25° C.
Method: Subsequently, 100 μl of a Botrytis cinerea suspension prepared in PCB medium was used to inoculated each well with 2.5×10^3 spores/ml.
After incubation of the microtiter plates at 25° C., the in vitro antifungal activity (%) of the individual active ingredients was assessed by calculating the reduction in mould growth observed in the presence of the active ingredient in comparison to the mould growth observed in the absence of the active ingredient. The expected antifungal activity (E in %) of the active ingredient combination was calculated according to the Colby equation (Colby, 1967): E=X+Y−[(X·Y)/100] wherein X and Y are the observed antifungal activities (in %) of the individual active ingredients X and Y, respectively. If the observed antifungal activity (O in %) of the combination exceeds the expected antifungal activity (E in %) of the combination and the resulting synergy factor O/E is thus >1.0, the combined application of the active ingredients leads to a synergistic antifungal effect.
Furthermore, Penicillium italicum was used for inoculation.

[6] = day 3, 500 ppm natamycin, 2000 ppm bixafen or both
[7] = day 4, 250 ppm natamycin, 250 ppm bixafen or both
[8] = day 4, 250 ppm natamycin, 500 ppm bixafen or both
[9] = day 4, 500 ppm natamycin, 2000 ppm bixafen or both
[10] = day 6, 250 ppm natamycin, 250 ppm bixafen or both
[11] = day 6, 250 ppm natamycin, 500 ppm bixafen or both
[12] = day 6, 500 ppm natamycin, 2000 ppm bixafen or both
[13] = day 7, 250 ppm natamycin, 250 ppm bixafen or both
[14] = day 7, 250 ppm natamycin, 500 ppm bixafen or both
[15] = day 9, 250 ppm natamycin, 500 ppm bixafen or both
[16] = day 9, 500 ppm natamycin, 2000 ppm bixafen or both
[17] = day 6, 500 ppm natamycin, 1000 ppm bixafen or both
[18] = day 11, 500 ppm natamycin, 2000 ppm bixafen or both
[19] = day 14, 500 ppm natamycin, 1000 ppm bixafen or both
[20] = day 14, 500 ppm natamycin, 2000 ppm bixafen or both

SMILES: C[C@@H]1C/C=C/C=C/C=C/C=C/[C@H](O[C@@H]2O[C@H](C)[C@@H](O)[C@H](N)[C@@H]2O)C[C@@H]2O[C@](O)(C[C@@H](O)C[C@H]3O[C@@H]3/C=C/C(=O)O1)C[C@H](O)[C@H]2C(=O)O [Natamycin, natamycin]
- Number of moulded strawberries/total number of 10 strawberries (Botrytis cinerea [1]; Day 3, 20° C., 250 ppm natamycin, 250 ppm bixafen or both): 8 and 8/10
- Number of moulded strawberries/total number of 10 strawberries (Botrytis cinerea [1]; Day 3, 20° C., 500 ppm natamycin, 2000 ppm bixafen or both): 10 and 10/10
- Number of moulded strawberries/total number of 10 strawberries (Botrytis cinerea [1]; Day 4, 20° C., 250 ppm natamycin, 250 ppm bixafen or both): 10 and 10/10
- Number of moulded strawberries/total number of 10 strawberries (Botrytis cinerea [1]; Day 4, 20° C., 500 ppm natamycin, 2000 ppm bixafen or both): 10 and 10/10
- Number of moulded strawberries/total number of 10 strawberries (Botrytis cinerea [1]; Day 5, 20° C., 250 ppm natamycin, 250 ppm bixafen or both): 10 and 10/10
- Number of moulded strawberries/total number of 10 strawberries (Botrytis cinerea [1]; Day 5-6, 20° C., 500 ppm natamycin, 2000 ppm bixafen or both): 10 and 10/10
- Observed antifungal activity O (%) (Botrytis cinerea [1]; [6]): 21%
- Observed antifungal activity O (%) (Botrytis cinerea [1]; [7]): 6%
- Observed antifungal activity O (%) (Botrytis cinerea [1]; [8]): 6%
- Observed antifungal activity O (%) (Botrytis cinerea [1]; [9]): 16%
- Observed antifungal activity O (%) (Botrytis cinerea [1]; day 5, 250 ppm natamycin, 250 ppm bixafen or both): 2%
- Observed antifungal activity O (%) (Botrytis cinerea [1]; day 5, 500 ppm natamycin, 2000 ppm bixafen or both): 3%
- Observed antifungal activity O (%) (Botrytis cinerea [1]; [10]): 0%
- Observed antifungal activity O (%) (Botrytis cinerea [1]; [11]): 0%
- Observed antifungal activity O (%) (Botrytis cinerea [1]; [12]): 0%
- Observed antifungal activity O (%) (Botrytis cinerea [1]; [13]): 0%
- Observed antifungal activity O (%) (Botrytis cinerea [1]; [14]): 0%
- Observed antifungal activity O (%) (Botrytis cinerea [1]; day 7, 500 ppm natamycin, 2000 ppm bixafen or both): 0%
- Observed antifungal activity O (%) (Botrytis cinerea [1]; [15]): 0%
- Observed antifungal activity O (%) (Botrytis cinerea [1]; [16]): 0%
- Observed antifungal activity O (%) (Botrytis cinerea [1]; day 10, 250 ppm natamycin, 500 ppm bixafen or both): 0%
- Observed antifungal activity O (%) (Botrytis cinerea [2]; day 3, 500 ppm natamycin): 59%
- Number of moulded wounds/total number of 10 wounds (Botrytis cinerea [2]; day 5, 20° C., 250 ppm natamycin): 10 and 10/10
- Observed antifungal activity O (%) (Botrytis cinerea [2]; day 5, 500 ppm natamycin): 19%
- Observed antifungal activity O (%) (Botrytis cinerea [2]; day 6, 500 ppm natamycin): 12%
- Observed antifungal activity O (%) (Penicillium italicum [3]; day 3, 250 ppm natamycin, 250 ppm bixafen or both): 70%
- Observed antifungal activity O (%) (Penicillium italicum [3]; [7]): 43%
- Observed antifungal activity O (%) (Penicillium italicum [3]; [8]): 43%
- Observed antifungal activity O (%) (Penicillium italicum [3]; day 4, 500 ppm natamycin, 1000 ppm bixafen or both): 63%
- Observed antifungal activity O (%) (Penicillium italicum [3]; [9]): 63%
- Observed antifungal activity O (%) (Penicillium italicum [3]; [10]): 18%
- Observed antifungal activity O (%) (Penicillium italicum [3]; [11]): 18%
- Observed antifungal activity O (%) (Penicillium italicum [3]; [17]): 28%
- Observed antifungal activity O (%) (Penicillium italicum [3]; [12]): 28%
- Observed antifungal activity O (%) (Penicillium italicum [3]; [13]): 10%
- Observed antifungal activity O (%) (Penicillium italicum [3]; [14]): 10%
- Observed antifungal activity O (%) (Penicillium italicum [3]; day 7, 500 ppm natamycin, 1000 ppm bixafen or both): 16%
- Observed antifungal activity O (%) (Penicillium italicum [3]; day 9, 250 ppm natamycin, 250 ppm bixafen or both): 8%
- Observed antifungal activity O (%) (Penicillium italicum [3]; [15]): 8%
- Observed antifungal activity O (%) (Penicillium italicum [3]; day 11, 250 ppm natamycin, 500 ppm bixafen or both): 13%
- Observed antifungal activity O (%) (Penicillium italicum [3]; [18]): 13%
- Observed antifungal activity O (%) (Penicillium italicum [3]; day 13, 250 ppm natamycin, 500 ppm bixafen or both): 12%
- Observed antifungal activity O (%) (Penicillium italicum [3]; [19]): 9%
- Observed antifungal activity O (%) (Penicillium italicum [3]; [20]): 9%
- Observed antifungal activity O (%) (Penicillium italicum [3]; day 15, 250 ppm natamycin, 500 ppm bixafen or both): 6%
- Observed antifungal activity O (%) (Penicillium italicum [3]; day 15, 500 ppm natamycin, 1000 ppm bixafen or both): 5%
- Observed antifungal activity O (%) (Penicillium italicum [3]; day 15, 500 ppm natamycin, 2000 ppm bixafen or both): 5%
- Number of moulded apples/total number of 10 apples (Penicillium italicum [4]; Day 3, 20° C., 1000 ppm bixafen or both): 9 and 9/10
- Number of moulded apples/total number of 10 apples (Penicillium italicum [4]; Day 3-4, 20° C., 2000 ppm bixafen or both): 9 and 9/10
- Number of moulded apples/total number of 10 apples (Penicillium italicum [4]; Day 4, 20° C., 1000 ppm bixafen or both): 9 and 9/10
- Number of moulded apples per total of 10 apples (Penicillium italicum [4]; Day 6, 20° C., 500 ppm bixafen or both): 10 and 10/10
- Number of moulded apples/total number of 10 apples (Penicillium italicum [4]; Day 6, 20° C., 1000 ppm bixafen or both): 10 and 10/10
- Number of moulded apples/total number of 10 apples (Penicillium italicum [4]; Day 6, 20° C., 2000 ppm bixafen or both): 10 and 10/10
- Number of moulded apples per total of 10 apples (Penicillium italicum [4]; Day 6-9, 20° C., 250 ppm bixafen or both): all and 10/10
- Number of moulded apples per total of 10 apples (Penicillium italicum [4]; Day 7, 20° C., 500 ppm bixafen or both): 10 and 10/10
- Number of moulded apples/total number of 10 apples (Penicillium italicum [4]; Day 7, 20° C., 1000 ppm bixafen or both): 10 and 10/10
- Number of moulded apples/total number of 10 apples (Penicillium italicum [4]; Day 7, 20° C., 2000 ppm bixafen or both): 10 and 10/10
- Number of moulded apples per total of 10 apples (Penicillium italicum [4]; Day 9, 20° C., 500 ppm bixafen or both): 10 and 10/10
- Number of moulded apples/total number of 10 apples (Penicillium italicum [4]; Day 9-14, 20° C., 1000 ppm bixafen or both): all and 10/10
- Number of moulded apples/total number of 10 apples (Penicillium italicum [4]; Day 9-14, 20° C., 2000 ppm bixafen or both): all and 10/10
- Number of moulded apples per total of 10 apples (Penicillium italicum [4]; Day 11-15, 20° C., 250 ppm bixafen or both): all and 10/10
- Observed antifungal activity O (%) (Penicillium italicum [4]; day 3, 500 ppm natamycin, 1000 ppm bixafen or both): 33%
- Observed antifungal activity O (%) (Penicillium italicum [4]; [6]): 33%
- Observed antifungal activity O (%) (Penicillium italicum [4]; day 6, 250 ppm natamycin, 250 ppm bixafen or both (bixafen 500 ppm)): 38%
- Observed antifungal activity O (%) (Penicillium italicum [4]; [11]): 38%
- Observed antifungal activity O (%) (Penicillium italicum [4]; [17]): 6%
- Observed antifungal activity O (%) (Penicillium italicum [4]; [12]): 6%
- Observed antifungal activity O (%) (Penicillium italicum [4]; [14]): 42%
- Observed antifungal activity O (%) (Penicillium italicum [4]; day 9, 250 ppm natamycin, 250 ppm bixafen or both (bixafen 500 ppm)): 35%
- Observed antifungal activity O (%) (Penicillium italicum [4]; [15]): 35%
- Observed antifungal activity O (%) (Penicillium italicum [4]; day 9, 500 ppm natamycin, 1000 ppm bixafen or both): 21%
- Observed antifungal activity O (%) (Penicillium italicum [4]; [16]): 21%
- Observed antifungal activity O (%) (Penicillium italicum [4]; day 11, 250 ppm natamycin, 250 ppm bixafen or both (bixafen 500 ppm)): 42%
- Observed antifungal activity O (%) (Penicillium italicum [4]; day 11, 500 ppm natamycin, 1000 ppm bixafen or both): 26%
- Observed antifungal activity O (%) (Penicillium italicum [4]; [18]): 26%
- Observed antifungal activity O (%) (Penicillium italicum [4]; day 14, 250 ppm natamycin, 250 ppm bixafen or both (bixafen 500 ppm)): 49%
- Observed antifungal activity O (%) (Penicillium italicum [4]; [19]): 30%
- Observed antifungal activity O (%) (Penicillium italicum [4]; [20]): 30%
- Observed antifungal activity O (%) (Penicillium italicum [5]; day 10, 0.63 ppm natamycin, 25 ppm isopyrazam or both): 0%
- Observed antifungal activity O (%) (Penicillium italicum [5]; day 10, 1.25 ppm natamycin, 25 ppm bixafen or both): 0%
